Measured values as given in patent publication US20240252488A1 (KOREA RESEARCH INSTITUTE OF CHEMICAL TECHNOLOGY, priority 2020, published 2024).

How the values were obtained:
MLKL [1] = biological target: T1, MLKL (Homo sapiens, UniProt Q8NB16); assay: Measurement of binding affinity with MLKL receptor (competitive binding assay, Kd); design: made in house; host or cells: HEK 293 cell line (T7 phage in E. coli BL21-derived host is also described)
T1 sequence (Q8NB16 1-471): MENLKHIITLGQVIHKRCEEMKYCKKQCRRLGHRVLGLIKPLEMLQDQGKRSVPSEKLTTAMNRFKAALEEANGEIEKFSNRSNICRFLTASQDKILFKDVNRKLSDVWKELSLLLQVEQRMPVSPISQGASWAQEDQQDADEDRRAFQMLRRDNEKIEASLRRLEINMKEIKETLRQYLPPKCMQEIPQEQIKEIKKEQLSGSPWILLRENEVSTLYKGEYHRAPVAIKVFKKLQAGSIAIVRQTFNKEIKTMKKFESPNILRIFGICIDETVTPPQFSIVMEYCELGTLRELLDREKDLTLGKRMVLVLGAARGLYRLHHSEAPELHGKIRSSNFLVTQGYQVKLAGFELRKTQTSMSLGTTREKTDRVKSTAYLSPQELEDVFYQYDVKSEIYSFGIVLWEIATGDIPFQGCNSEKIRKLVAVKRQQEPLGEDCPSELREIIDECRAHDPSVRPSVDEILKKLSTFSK
How it was run: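 Competition binding of kinase tagged with DNA for qPCR detection, expressed in HEK 293 cells, against immobilized ligand on beads. Final DMSO 0.9%. Kd derived from kinase amount in eluates measured by qPCR.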

FADD−/− Jurkat cells = assay: Necroptosis inhibition assay, TNF-α-induced necroptosis (CellTiter-Glo 2.0); format: cell-based, human; details: TNF-α 15 ng/mL; for Necroptosis inhibition assay (Rescue %) 1 μM: compound 1 μM; for Necroptosis inhibition assay (Rescue %) 10 μM: compound 10 μM; for Necroptosis inhibition assay (Rescue %) 1.1 μM: compound 1.1 µM
How it was run: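 Cells at 5.0×10^5 cells/mL were pretreated with compound (final 0.1, 1 and 10 μM) for 30 minutes at room temperature, then given TNF-α at 15 ng/mL final. After 20 to 24 hours at 37° C, 5% CO2, viability was read as ATP luminescence to calculate cytotoxicity and necroptosis inhibition rate.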

MLKL [2] = biological target: T1, MLKL; assay: MLKL degradation assay in HepG2 cell line (western blot); format: cell-based; design: endogenous in cells; host or cells: HepG2 or HaCaT; details: cell line not given; for Degradation assay (Degradation %) 1 μM: compound 1 μM; for Degradation assay (Degradation %) 10 μM: compound 10 μM
How it was run: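 HepG2 cells were exposed to compound at a final 1 or 10 μM for 20-24 hours at 37 °C, 5% CO2. RIPA lysates were normalized by BCA assay, 10-15 μg protein resolved by SDS-PAGE, and MLKL levels detected by western blot with chemiluminescence.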

| SMILES | Kd (MLKL [1]) [nM] | Degradation assay (Degradation %) 1 μM (MLKL [2]) [%] | Degradation assay (Degradation %) 10 μM (MLKL [2]) [%] | Necroptosis inhibition assay (Rescue %) 1 μM (FADD−/− Jurkat cells) [%] | Necroptosis inhibition assay (Rescue %) 10 μM (FADD−/− Jurkat cells) [%] | Necroptosis inhibition assay (Rescue %) 1 μM (FADD−/− Jurkat cells; FADD−/− Jurkat cells) [%] | Necroptosis inhibition assay (Rescue %) 10 μM (FADD−/− Jurkat cells; FADD−/− Jurkat cells) [%] | Necroptosis inhibition assay (Rescue %) 1.1 μM (FADD−/− Jurkat cells) |
| --- | --- | --- | --- | --- | --- | --- | --- | --- |
| Nc1ncc(-c2cnn(C3CCN(C(=O)C4CCN(C(=O)CCc5cccc6c5CN(C5CCC(=O)NC5=O)C6=O)CC4)CC3)c2)nc1C(=O)O[C@@H](C(=O)Nc1ccc(F)cc1)c1ccccc1 (stereo partly drawn) [TDH-388, (R)-2-((4-fluorophenyl)amino)-2-oxo-1-phenylethyl 3-amino-6-(1-(1-(1-(3-(2-(2,6-dioxopiperidin-3-yl)-1-oxoisoindolin-4-yl)propanoyl)piperidine-4-carbonyl)piperidin-4-yl)-1H-pyrazol-4-yl)pyrazine-2-carboxylate] | 2.3 | 68.53 | 80.04 | 22.66 | 22.49 | – | – | – |
| Nc1ncc(-c2cnn(C3CCN(C(=O)c4cn(C5CCN(c6ccc7c(c6)C(=O)N(C6CCC(=O)NC6=O)C7=O)CC5)cn4)CC3)c2)nc1C(=O)O[C@@H](C(=O)Nc1ccc(F)cc1)c1ccccc1 (stereo partly drawn) [TDH-365, (R)-2-((4-fluorophenyl)amino)-2-oxo-1-phenylethyl 3-amino-6-(1-(1-(1-(1-(2-(2,6-dioxopiperidin-3-yl)-1,3-dioxoisoindolin-5-yl)piperidin-4-yl)-1H-imidazole-4-carbonyl)piperidin-4-yl)-1H-pyrazol-4-yl)pyrazine-2-carboxylate] | 3.9 | 72.59 | 82.21 | 19.16 | 16.51 | – | – | – |
| Nc1ncc(-c2cnn(C3CN(CC4CCN(C(=O)CNc5ccc6c(c5)C(=O)N(C5CCC(=O)NC5=O)C6=O)CC4)C3)c2)nc1C(=O)O[C@@H](C(=O)Nc1ccc(F)cc1)c1ccccc1 (stereo partly drawn) [TDH-360, (R)-2-((4-fluorophenyl)amino)-2-oxo-1-phenylethyl 3-amino-6-(1-(1-((1-((2-(2,6-dioxopiperidin-3-yl)-1,3-dioxoisoindolin-5-yl)glycyl)piperidin-4-yl)methyl)azetidin-3-yl)-1H-pyrazol-4-yl)pyrazine-2-carboxylate] | 3.3 | 87.25 | 73.06 | – | 38.05 | – | – | 55.49 (1.1µM) % |
| Nc1ncc(-c2cnn(C3CCN(C(=O)c4cn(C5CCN(C(=O)C6CCN(c7cccc8c7C(=O)N(C7CCC(=O)NC7=O)C8=O)CC6)CC5)cn4)CC3)c2)nc1C(=O)O[C@@H](C(=O)Nc1ccc(F)cc1)c1ccccc1 (stereo partly drawn) [TDH-362, (R)-2-((4-fluorophenyl)amino)-2-oxo-1-phenylethyl 3-amino-6-(1-(1-(1-(1-(1-(2-(2,6-dioxopiperidin-3-yl)-1,3-dioxoisoindolin-4-yl)piperidine-4-carbonyl)piperidin-4-yl)-1H-imidazole-4-carbonyl)piperidin-4-yl)-1H-pyrazol-4-yl)pyrazine-2-carboxylate] | 5.5 | 69.87 | 69.78 | 17.89 | 16.12 | – | – | – |
| Nc1ncc(-c2cnn(C3CCN(C(=O)C4CCN(C(=O)CNc5ccc6c(c5)C(=O)N(C5CCC(=O)NC5=O)C6=O)CC4)CC3)c2)nc1C(=O)O[C@@H](C(=O)Nc1ccc(F)cc1)c1ccccc1 (stereo partly drawn) [TDH-353, (R)-2-((4-fluorophenyl)amino)-2-oxo-1-phenylethyl 3-amino-6-(1-(1-(1-((2-(2,6-dioxopiperidin-3-yl)-1,3-dioxoisoindolin-5-yl)glycyl)piperidine-4-carbonyl)piperidin-4-yl)-1H-pyrazol-4-yl)pyrazine-2-carboxylate] | 26 | 75.35 | 86.12 | – | 49.23 | – | – | 55.34 (1.1µM) % |

Now those with a lower Kd (MLKL [1]), led by results:

| Kd (MLKL [1]) [nM] | Degradation assay (Degradation %) 1 μM (MLKL [2]) [%] | Degradation assay (Degradation %) 10 μM (MLKL [2]) [%] | SMILES | Necroptosis inhibition assay (Rescue %) 1 μM (FADD−/− Jurkat cells) [%] | Necroptosis inhibition assay (Rescue %) 10 μM (FADD−/− Jurkat cells) [%] | Necroptosis inhibition assay (Rescue %) 1 μM (FADD−/− Jurkat cells; FADD−/− Jurkat cells) [%] | Necroptosis inhibition assay (Rescue %) 10 μM (FADD−/− Jurkat cells; FADD−/− Jurkat cells) [%] | Necroptosis inhibition assay (Rescue %) 1.1 μM (FADD−/− Jurkat cells) |
| --- | --- | --- | --- | --- | --- | --- | --- | --- |
| 1.2 | 71.10 | 42.46 | Nc1ncc(-c2cnn(C3CCN(CC4CCN(CC5CCN(C(=O)C6CCN(C7=CC(=O)N(C8CCC(=O)NC8=O)C7=O)CC6)CC5)CC4)CC3)c2)nc1C(=O)O[C@@H](C(=O)Nc1ccc(F)cc1)c1ccccc1 (stereo partly drawn) [TDH-527, (R)-2-((4-fluorophenyl)amino)-2-oxo-1-phenylethyl 3-amino-6-(1-(1-((1-((1-(1-(1-(2,6-dioxopiperidin-3-yl)-2,5-dioxo-2,5-dihydro-1H-pyrrol-3-yl)piperidine-4-carbonyl)piperidin-4-yl)methyl)piperidin-4-yl)methyl)piperidin-4-yl)-1H-pyrazol-4-yl)pyrazine-2-carboxylate] | – | – | 42.79 | −12.98 | – |
| 1.3 | 69.49 | 41.71 | Nc1ncc(-c2cnn(C3CCN(CCC4CCN(C(=O)CNc5cccc6c5C(=O)N(C5CCC(=O)NC5=O)C6=O)CC4)CC3)c2)nc1C(=O)O[C@@H](C(=O)Nc1ccc(F)cc1)c1ccccc1 (stereo partly drawn) [TDH-198, (R)-2-((4-fluorophenyl)amino)-2-oxo-1-phenylethyl 3-amino-6-(1-(1-(2-(1-((2-(2,6-dioxopiperidin-3-yl)-1,3-dioxoisoindolin-4-yl)glycyl)piperidin-4-yl)ethyl)piperidin-4-yl)-1H-pyrazol-4-yl)pyrazine-2-carboxylate] | 79.13 | 31.65 | – | – | – |
| 1.4 | 46.29 | 48.24 | Nc1ncc(-c2cnn(C3CCN(CC4CCN(C(=O)COc5cccc6c5C(=O)N(C5CCC(=O)NC5=O)C6=O)CC4)CC3)c2)nc1C(=O)O[C@@H](C(=O)Nc1ccc(F)cc1)c1ccccc1 (stereo partly drawn) [TDH-148, (R)-2-((4-fluorophenyl)amino)-2-oxo-1-phenylethyl 3-amino-6-(1-(1-((1-(2-((2-(2,6-dioxopiperidin-3-yl)-1,3-dioxoisoindolin-4-yl)oxy)acetyl)piperidin-4-yl)methyl)piperidin-4-yl)-1H-pyrazol-4-yl)pyrazine-2-carboxylate] | 54.25 | 15.48 | – | – | – |
| 0.6 | 88.53 | 88.65 | COc1ccc(C(=O)N2CCC(OCCN3CCC(CN4CCC(n5cc(-c6cnc(N)c(C(=O)O[C@@H](C(=O)Nc7ccc(F)cc7)c7ccccc7)n6)cn5)CC4)CC3)CC2)cc1N1CCC(=O)NC1=O [TDH-506, (R)-2-((4-fluorophenyl)amino)-2-oxo-1-phenylethyl 3-amino-6-(1-(1-((1-(2-((1-(3-(2,4-dioxotetrahydropyrimidin-1(2H)-yl)-4-methoxybenzoyl)piperidin-4-yl)oxy)ethyl)piperidin-4-yl)methyl)piperidin-4-yl)-1H-pyrazol-4-yl)pyrazine-2-carboxylate] | – | – | 75.45 | 48.09 | – |
